Data: patent publication US10202658B2, “Methods for determining hypersusceptibility of HIV-1 to non-nucleoside reverse transcriptase inhibitors” (Monogram Biosciences, Inc., priority 2005, dated 2019)

Test system: HIV-1 clinical isolates grouped by RT mutations
Experiment: Pairwise comparison of NNRTI fold change between groups of clinical isolates (Student's T-test, Bonferroni's Multiple Comparison Test)
Assay type: cell-based
Protocol: This example provides methods and compositions for identifying mutations that correlate with hypersusceptibility to a NNRTI. Resistance test vectors were constructed and used as described in Example 1. Resistance test vectors derived from patient samples or clones derived from the resistance test vector pools were tested in a resistance assay to determine accurately and quantitatively the relative EFV, DLV, or NVP resistance or susceptibility compared to the median observed resistance or susceptibility.
To identify mutations associated with NNRTI hypersusceptibility, the following analysis was performed. […] The TAMs referenced in. Table 1 include M41L, D67N, K70R, L210W, T215FY, and K219X, while the NAMs referenced include K65R, T69X, L74IV, V75X, and M184IV. Isolates without NRTI, NNRTI or PI mutations served as a wild type (WT) reference group. Further comparison groups comprised isolates with three TAMS including T215Y (+/−H208Y, +/−V118I) or three TAMS including K70R. Scatter plots and statistical tests (See FIGS. 1-6) were generated using Prism 4.0 (GraphPad, San Diego, Calif.)
In addition, a pairwise comparison between two sets of data was conducted using Bonferroni's Multiple Comparison Test using the Prism 4.0 software. The results of the comparison are presented in Tables 2, 3, and 4, appended to the end of this document. Samples with K65R, K65R+M184V, or 2 TAMs in combination with T215Y had over 40% with EFV FC<0.4.

## O=C1Nc2ccc(Cl)cc2[C@@](C#CC2CC2)(C(F)(F)F)O1 [EFV, efavirenz]
1 NAM vs 2 NAMs
  Mean Diff. of fold change: 0.1722
1 NAM vs 3 NAMs
  Mean Diff. of fold change: 0.1256
1 NAM vs K65R
  Mean Diff. of fold change: 0.1565
1 NAM vs K65R + M184V
  Mean Diff. of fold change: 0.2694
1 NAM vs K70R_3_TAMs
  Mean Diff. of fold change: −0.02778
1 NAM vs M184V
  Mean Diff. of fold change: 0.001657
1 NAM vs T69
  Mean Diff. of fold change: −0.09534
1 NAM vs T215Y_3_TAMs
  Mean Diff. of fold change: 0.2651
1 NAM vs T215Y_3_TAMs_118
  Mean Diff. of fold change: 0.3291
1 NAM vs T215Y_3_TAMs_208
  Mean Diff. of fold change: 0.3294
1 NAM vs T215Y_3_TAMs_no118
  Mean Diff. of fold change: 0.2225
1 NAM vs T215Y_3_TAMs_no208
  Mean Diff. of fold change: 0.2549
2 NAMs vs 3 NAMs
  Mean Diff. of fold change: −0.04654
2 NAMs vs K65R
  Mean Diff. of fold change: −0.01562
2 NAMs vs K65R + M184V
  Mean Diff. of fold change: 0.09723
2 NAMs vs K70R_3_TAMs
  Mean Diff. of fold change: −0.1999
2 NAMs vs M184V
  Mean Diff. of fold change: −0.1705
2 NAMs vs T69
  Mean Diff. of fold change: −0.2675
2 NAMs vs T215Y_3_TAMs
  Mean Diff. of fold change: 0.09297
2 NAMs vs T215Y_3_TAMs_118
  Mean Diff. of fold change: 0.1569
2 NAMs vs T215Y_3_TAMs_208
  Mean Diff. of fold change: 0.1573
2 NAMs vs T215Y_3_TAMs_no118
  Mean Diff. of fold change: 0.05035
2 NAMs vs T215Y_3_TAMs_no208
  Mean Diff. of fold change: 0.08272
3 NAMs vs K65R
  Mean Diff. of fold change: 0.03092
3 NAMs vs K65R + M184V
  Mean Diff. of fold change: 0.1438
3 NAMs vs K70R_3_TAMs
  Mean Diff. of fold change: −0.1534
3 NAMs vs M184V
  Mean Diff. of fold change: −0.124
3 NAMs vs T69
  Mean Diff. of fold change: −0.221
3 NAMs vs T215Y_3_TAMs
  Mean Diff. of fold change: 0.1395
3 NAMs vs T215Y_3_TAMs_118
  Mean Diff. of fold change: 0.2035
3 NAMs vs T215Y_3_TAMs_208
  Mean Diff. of fold change: 0.2038
3 NAMs vs T215Y_3_TAMs_no118
  Mean Diff. of fold change: 0.09689
3 NAMs vs T215Y_3_TAMs_no208
  Mean Diff. of fold change: 0.1293
K65R + M184V vs K70R_3_TAMs
  Mean Diff. of fold change: −0.2972
K65R + M184V vs T215Y_3_TAMs
  Mean Diff. of fold change: −0.004258
K65R + M184V vs T215Y_3_TAMs_118
  Mean Diff. of fold change: 0.05968
K65R + M184V vs T215Y_3_TAMs_208
  Mean Diff. of fold change: 0.06005
K65R + M184V vs T215Y_3_TAMs_no118
  Mean Diff. of fold change: −0.04688
K65R + M184V vs T215Y_3_TAMs_no208
  Mean Diff. of fold change: −0.01451
K65R vs K65R + M184V
  Mean Diff. of fold change: 0.1129
K65R vs K70R_3_TAMs
  Mean Diff. of fold change: −0.1843
K65R vs M184V
  Mean Diff. of fold change: −0.1549
K65R vs T69
  Mean Diff. of fold change: −0.2519
K65R vs T215Y_3_TAMs
  Mean Diff. of fold change: 0.1086
K65R vs T215Y_3_TAMs_118
  Mean Diff. of fold change: 0.1725
K65R vs T215Y_3_TAMs_208
  Mean Diff. of fold change: 0.1729
K65R vs T215Y_3_TAMs_no118
  Mean Diff. of fold change: 0.06597
K65R vs T215Y_3_TAMs_no208
  Mean Diff. of fold change: 0.09835
K70R_3_TAMs vs T215Y_3_TAMs_118
  Mean Diff. of fold change: 0.3569
K70R_3_TAMs vs T215Y_3_TAMs_no118
  Mean Diff. of fold change: 0.2503
M184V vs K65R + M184V
  Mean Diff. of fold change: 0.2677
M184V vs K70R_3_TAMs
  Mean Diff. of fold change: −0.02944
M184V vs T69
  Mean Diff. of fold change: −0.09699
M184V vs T215Y_3_TAMs
  Mean Diff. of fold change: 0.2635
M184V vs T215Y_3_TAMs_118
  Mean Diff. of fold change: 0.3274
M184V vs T215Y_3_TAMs_208
  Mean Diff. of fold change: 0.3278
M184V vs T215Y_3_TAMs_no118
  Mean Diff. of fold change: 0.2209
M184V vs T215Y_3_TAMs_no208
  Mean Diff. of fold change: 0.2532
T69 vs K65R + M184V
  Mean Diff. of fold change: 0.3647
T69 vs K70R_3_TAMs
  Mean Diff. of fold change: 0.06756
T69 vs T215Y_3_TAMs
  Mean Diff. of fold change: 0.3605
T69 vs T215Y_3_TAMs_118
  Mean Diff. of fold change: 0.4244
T69 vs T215Y_3_TAMs_208
  Mean Diff. of fold change: 0.4248
T69 vs T215Y_3_TAMs_no118
  Mean Diff. of fold change: 0.3179
T69 vs T215Y_3_TAMs_no208
  Mean Diff. of fold change: 0.3502
T215Y_3_TAMs vs K70R_3_TAMs
  Mean Diff. of fold change: −0.2929
T215Y_3_TAMs vs T215Y_3_TAMs_118
  Mean Diff. of fold change: 0.06394
T215Y_3_TAMs vs T215Y_3_TAMs_208
  Mean Diff. of fold change: 0.06431
T215Y_3_TAMs vs T215Y_3_TAMs_no118
  Mean Diff. of fold change: −0.04263
T215Y_3_TAMs vs T215Y_3_TAMs_no208
  Mean Diff. of fold change: −0.01025
T215Y_3_TAMs_208 vs K70R_3_TAMs
  Mean Diff. of fold change: −0.3572
T215Y_3_TAMs_208 vs T215Y_3_TAMs_118
  Mean Diff. of fold change: −0.0003693
T215Y_3_TAMs_208 vs T215Y_3_TAMs_no118
  Mean Diff. of fold change: −0.1069
T215Y_3_TAMs_208 vs T215Y_3_TAMs_no208
  Mean Diff. of fold change: −0.07456
T215Y_3_TAMs_no118 vs T215Y_3_TAMs_118
  Mean Diff. of fold change: 0.1066
T215Y_3_TAMs_no208 vs K70R_3_TAMs
  Mean Diff. of fold change: −0.2827
T215Y_3_TAMs_no208 vs T215Y_3_TAMs_118
  Mean Diff. of fold change: 0.07419
T215Y_3_TAMs_no208 vs T215Y_3_TAMs_no118
  Mean Diff. of fold change: −0.03237
All groups containing NAMs or the combination of TAMs shown in Table 1, p<0.0001, Student's T-test
  mean fold change (FC) compared to the WT population: significantly lower
Wt vs 1 NAM
  Mean Diff. of fold change: 0.2652
Wt vs 2 NAMs
  Mean Diff. of fold change: 0.4373
Wt vs 3 NAMs
  Mean Diff. of fold change: 0.3908
Wt vs K65R
  Mean Diff. of fold change: 0.4217
Wt vs K65R + M184V
  Mean Diff. of fold change: 0.5346
Wt vs K70R_3_TAMs
  Mean Diff. of fold change: 0.2374
Wt vs M184V
  Mean Diff. of fold change: 0.2668
Wt vs T69
  Mean Diff. of fold change: 0.1698
Wt vs T215Y_3_TAMs
  Mean Diff. of fold change: 0.5303
Wt vs T215Y_3_TAMs_118
  Mean Diff. of fold change: 0.5942
Wt vs T215Y_3_TAMs_208
  Mean Diff. of fold change: 0.5946
Wt vs T215Y_3_TAMs_no118
  Mean Diff. of fold change: 0.4877
Wt vs T215Y_3_TAMs_no208
  Mean Diff. of fold change: 0.5201
